pKi: −log10 of the molar value.
Biological target: Carbonic anhydrase 9 (Homo sapiens, UniProt Q16790)

SMILES | pKi
NS(=O)(=O)c1ccc(-n2cc(CS[C@@H]3O[C@H](CO)[C@H](O)[C@H](O)[C@H]3O)nn2)cc1 | 8.21
NS(=O)(=O)c1ccc(-n2cc(C[S+]([O-])[C@@H]3O[C@H](CO)[C@H](O)[C@H](O)[C@H]3O)nn2)cc1 (stereo not given in full) | 8.10
NS(=O)(=O)c1ccc(-n2cc(CS(=O)(=O)[C@@H]3O[C@H](CO)[C@H](O)[C@H](O)[C@H]3O)nn2)cc1 | 8.09
CC(=O)OC[C@H]1O[C@@H](S(=O)(=O)Cc2cn(-c3ccc(S(N)(=O)=O)cc3)nn2)[C@H](OC(C)=O)[C@@H](OC(C)=O)[C@H]1OC(C)=O | 8.12
NS(=O)(=O)c1ccc(-n2cc(C[S+]([O-])[C@@H]3O[C@H](CO)[C@@H](O)[C@H](O)[C@H]3O)nn2)cc1 (stereo not given in full) | 8.01

Other lines, results leading:

pKi | SMILES
8.03 | CC(=O)OC[C@H]1O[C@@H](S(=O)(=O)Cc2cn(-c3ccc(S(N)(=O)=O)cc3)nn2)[C@H](OC(C)=O)[C@@H](OC(C)=O)[C@@H]1OC(C)=O
6.59 | NS(=O)(=O)c1ccc(-n2cc(CS[C@@H]3O[C@H](CO)[C@@H](O)[C@H](O)[C@H]3O)nn2)cc1
8.02 | NS(=O)(=O)c1ccc(-n2cc(CS(=O)(=O)[C@@H]3O[C@H](CO)[C@@H](O)[C@H](O)[C@H]3O)nn2)cc1
8.07 | CC(=O)OC[C@H]1O[C@@H](SCc2cn(-c3ccc(S(N)(=O)=O)cc3)nn2)[C@H](OC(C)=O)[C@@H](OC(C)=O)[C@@H]1OC(C)=O
8.07 | CC(=O)OC[C@H]1O[C@@H](SCc2cn(-c3ccc(S(N)(=O)=O)cc3)nn2)[C@H](OC(C)=O)[C@@H](OC(C)=O)[C@H]1OC(C)=O

From ChEMBL document CHEMBL1153979, “Inhibition of carbonic anhydrase isozymes with benzene sulfonamides incorporating thio, sulfinyl and sulfonyl glycoside moieties” (Bioorg Med Chem Lett, 2009)
